The experiment addresses T1, thrombin (Homo sapiens, UniProt P00734).
T1 construct: consists of two polypeptide chains of 36 (light chain) and 259 amino acid
Description: Thrombin inhibition screen of crude macrocycle reactions (residual thrombin activity, fluorogenic substrate Z-Gly-Gly-Arg-AMC). It is filed as biochemical. The note with it: 10 µM macrocycle concentration, macrocycles containing acid 14, crude reaction; for % thrombin activity, Repeat screen: replicate reaction and screen. The gist of the method: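 Each crude macrocycle (10 μM) was preincubated 10 min at room temperature with thrombin (2 nM final) in Tris-Cl pH 7.4 containing NaCl, MgCl2, CaCl2, 0.1% BSA, 0.01% Triton X-100 and 0.6% DMSO. Z-Gly-Gly-Arg-AMC (50 μM final) was then added. Inhibition came from fluorescence slopes relative to DMSO-only controls.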

Numbered stars: 1 amine (or outer) side, 2 acyl side, 3 side chain; on linkers, the order of the positions; unused ones are H or OH. Bridge positions count the residues as written; N and C are the ends. Square brackets hold non-standard residues; d marks the D form. Peptide text beside a SMILES is read from it. * marks the point of attachment. 2Thenoyl(5-Cl) = O=C(c1ccc(Cl)s1)*; Cysteamide = C(CS[*:3])N[*:1]; dDap = NC[C@@H](N)C(=O)O; Orn = NCCC[CH](N)C(=O)O; Dap = NC[C@H](N)C(=O)O; Mpa = O=C(O)CCS

For `O=C1CCSSCCNC(=O)[C@@H](Cc2ccccc2)NC(=O)c2ccc(cc2)CNC(=O)[C@H](CNC(=O)c2ccc(Cl)s2)N1` [X D3 B3 f], the “% thrombin activity, Original screen” value turned out to be 77.4% and the “% thrombin activity, Repeat screen” value is on record as 84.4%.
As to `O=C1CCSSCCNC(=O)[C@H](Cc2ccccc2)NC(=O)[C@H]2CCCN(C2)C(=O)[C@H](CNC(=O)c2ccc(Cl)s2)N1` [X D3 B4 F], the “% thrombin activity, Original screen” value turned out to be 66.8% and the “% thrombin activity, Repeat screen” value worked out at 62.9%.
The matching figures for `NC(=O)CCC1NC(=O)C2CCCN(C2)C(=O)C(CNC(=O)c2ccc(Cl)s2)NC(=O)CCSSCCNC1=O` (stereo not shown) [X D3 B4 Q]: 94.4% and 90.2%.
The matching figures for `O=C1CCSSCCNC(=O)[C@H](Cc2ccc(O)cc2)NC(=O)C2(CC2)CNC(=O)[C@H](CNC(=O)c2ccc(Cl)s2)N1` [X D3 B6 Y]: 70.6% and 70.5%.
For `CC[C@H](C)[C@@H]1NC(=O)[C@H](CNC(=O)c2ccc(Cl)s2)NC(=O)CCSSCCNC(=O)c2ccc(cc2)CNC1=O` [X D3 I B3], the “% thrombin activity, Original screen” value is recorded as 87.6% and the “% thrombin activity, Repeat screen” value was 88.8%.
Regarding `NC(=O)CC[C@@H]1NC(=O)[C@H](CNC(=O)c2ccc(Cl)s2)NC(=O)CCSSCCNC(=O)C2(CC2)CNC1=O` [X D3 Q B6], the “% thrombin activity, Original screen” value came to 72.8% and the “% thrombin activity, Repeat screen” value stood at 67.3%.
The matching figures for `O=C1CCSSCCNC(=O)c2ccc(cc2)CNC(=O)[C@H](Cc2c[nH]c3ccccc23)NC(=O)[C@H](CNC(=O)c2ccc(Cl)s2)N1` [X D3 W B3]: 101.5% and 109.4%.
The matching figures for `O=C1CCNC(=O)[C@@H](Cc2ccc(O)cc2)NC(=O)[C@H](CNC(=O)c2ccc(Cl)s2)NC(=O)CCSSCCN1` [X D3 y B2]: 78.6% and 75.2%.
The matching figures for `CC1NC(=O)C(CNC(=O)c2ccc(Cl)s2)NC(=O)CCSSCCNC(=O)c2cccc(c2)CNC1=O` (stereo not shown) [X D4 a B5]: 103.5% and 106.9%.
Regarding `O=C1CCSSCCNC(=O)[C@@H]2CCCN2C(=O)[C@@H](Cc2c[nH]c3ccccc23)NC(=O)[C@@H](CNC(=O)c2ccc(Cl)s2)N1` [X D4 w B1] ([Mpa][dDap](2Thenoyl(5-Cl))[dW]P-Cysteamide; disulfide 1-C), the “% thrombin activity, Original screen” value was found to be 68.9% and the “% thrombin activity, Repeat screen” value was 70.9%.
The matching figures for `O=C1CCNC(=O)[C@@H](Cc2c[nH]c3ccccc23)NC(=O)[C@@H](CNC(=O)c2ccc(Cl)s2)NC(=O)CCSSCCN1` [X D4 w B2]: 90.8% and 96.7%.
Turning to `O=C1CCNC(=O)C2CC(NC(=O)c3ccc(Cl)s3)CN2C(=O)CCSSCCNC(=O)C(CO)N1` (stereo not shown) [X D5 B2 S], the “% thrombin activity, Original screen” value worked out at 115.0% and the “% thrombin activity, Repeat screen” value is 124.0%.
Regarding `CC(C)CC1NC(=O)C2(CC2)CNC(=O)C2CC(NC(=O)c3ccc(Cl)s3)CN2C(=O)CCSSCCNC1=O` (stereo not shown) [X D5 B6 L], the “% thrombin activity, Original screen” value came to 114.0% and the “% thrombin activity, Repeat screen” value was 116.8%.
Consider `CC(C)CC1NC(=O)C2CC(NC(=O)c3ccc(Cl)s3)CN2C(=O)CCSSCCNC(=O)c2ccc(cc2)CNC1=O` (stereo not shown) [X D5 L B3], for which the “% thrombin activity, Original screen” value is 110.6% and the “% thrombin activity, Repeat screen” value worked out at 115.5%.
Regarding `CC(C)CC1NC(=O)C2CC(NC(=O)c3ccc(Cl)s3)CN2C(=O)CCSSCCNC(=O)C2CCCN(C2)C1=O` (stereo not shown) [X D5 L B4], the “% thrombin activity, Original screen” value is recorded as 94.2% and the “% thrombin activity, Repeat screen” value came to 89.4%.
With `NC(=O)CCC1NC(=O)C2CC(NC(=O)c3ccc(Cl)s3)CN2C(=O)CCSSCCNC(=O)c2ccc(cc2)CNC1=O` (stereo not shown) [X D5 Q B3], the “% thrombin activity, Original screen” value is given as 94.5% and the “% thrombin activity, Repeat screen” value came to 101.1%.
Taken in the same sequence, the figures for `O=C1NCCSSCCC(=O)N2CC(NC(=O)c3ccc(Cl)s3)CC2C(=O)NC(CO)C(=O)NCc2ccc1cc2` (stereo not shown) [X D5 s B3] were 92.6% and 101.4%.
Taken in the same sequence, the figures for `CC[C@H](C)[C@@H]1NC(=O)CCNC(=O)C2(CCN(C(=O)c3ccc(Cl)s3)CC2)NC(=O)CCSSCCNC1=O` [X D6 B2 I] were 104.4% and 109.7%.
The matching figures for `CC1NC(=O)c2ccc(cc2)CNC(=O)C2(CCN(C(=O)c3ccc(Cl)s3)CC2)NC(=O)CCSSCCNC1=O` (stereo not shown) [X D6 B3 a]: 92.0% and 95.8%.
In the case of `CC(C)C[C@@H]1NC(=O)c2cccc(c2)CNC(=O)C2(CCN(C(=O)c3ccc(Cl)s3)CC2)NC(=O)CCSSCCNC1=O` [X D6 B5 L], the “% thrombin activity, Original screen” value is 105.2% and the “% thrombin activity, Repeat screen” value is on record as 108.9%.
Turning to `O=C1CCSSCCNC(=O)[C@@H](Cc2ccccc2)NC(=O)c2cccc(c2)CNC(=O)C2(CCN(C(=O)c3ccc(Cl)s3)CC2)N1` [X D6 B5 f], the “% thrombin activity, Original screen” value is listed as 92.3% and the “% thrombin activity, Repeat screen” value is given as 95.8%.
The matching figures for `O=C1CCSSCCNC(=O)[C@H](Cc2c[nH]cn2)NC(=O)C2(CC2)CNC(=O)C2(CCN(C(=O)c3ccc(Cl)s3)CC2)N1` [X D6 B6 H]: 96.8% and 96.5%.
On to `CC(C)C1NC(=O)C2(CCN(C(=O)c3ccc(Cl)s3)CC2)NC(=O)CCSSCCNC(=O)C2CCCN(C2)C1=O` (stereo not shown) [X D6 V B4], for which the “% thrombin activity, Original screen” value was 81.5% and the “% thrombin activity, Repeat screen” value was found to be 80.4%.
As to `O=C1CCSSCCNC(=O)[C@H]2CCCN(C2)C(=O)[C@H](Cc2c[nH]c3ccccc23)NC(=O)C2(CCN(C(=O)c3ccc(Cl)s3)CC2)N1` [X D6 W B4], the “% thrombin activity, Original screen” value is given as 95.3% and the “% thrombin activity, Repeat screen” value is reported as 101.4%.
On to `CC(C)[C@H]1NC(=O)C2(CCN(C(=O)c3ccc(Cl)s3)CC2)NC(=O)CCSSCCNC(=O)c2cccc(c2)CNC1=O` [X D6 v B5], for which the “% thrombin activity, Original screen” value amounted to 84.9% and the “% thrombin activity, Repeat screen” value stood at 90.5%. Under “listed as X D6 V B5”, the “% thrombin activity, Original screen” value worked out at 98.9% and the “% thrombin activity, Repeat screen” value came out at 103.9%.
As for `O=C1CCNC(=O)[C@@H](Cc2ccc(O)cc2)NC(=O)C2(CCN(C(=O)c3ccc(Cl)s3)CC2)NC(=O)CCSSCCN1` [X D6 y B2], the “% thrombin activity, Original screen” value is recorded as 102.0% and the “% thrombin activity, Repeat screen” value was determined as 104.5%.
The matching figures for `O=C1CCNC(=O)[C@H](Cc2c[nH]cn2)NC(=O)CCSSCCNC(=O)[C@H](CCCNC(=O)c2ccc(Cl)s2)N1` [X H B2 D2]: 94.6% and 91.5%.
`O=C1CCSSCCNC(=O)C2CCCN2C(=O)C(CCCNC(=O)c2ccc(Cl)s2)NC(=O)C(Cc2c[nH]cn2)N1` (stereo not shown) [X H D2 B1] ([Mpa]H[Orn](2Thenoyl(5-Cl))P-Cysteamide; disulfide 1-C; configuration not given here): the “% thrombin activity, Original screen” value is on record as 95.8% and the “% thrombin activity, Repeat screen” value came out at 95.8%.
Turning to `CC[C@H](C)[C@@H]1NC(=O)CCSSCCNC(=O)[C@H](CNC(=O)c2ccc(Cl)s2)NC(=O)[C@@H]2CCCN2C1=O` [X I B1 D3] ([Mpa]IP[Dap](2Thenoyl(5-Cl))-Cysteamide; disulfide 1-C), the “% thrombin activity, Original screen” value worked out at 91.3% and the “% thrombin activity, Repeat screen” value amounted to 90.1%.
The matching figures for `CC[C@H](C)[C@@H]1NC(=O)CCSSCCNC(=O)[C@H](CNC(=O)c2ccc(Cl)s2)NC(=O)CCNC1=O` [X I B2 D3]: 72.9% and 70.2%.
Taken in the same sequence, the figures for `CC[C@H](C)[C@@H]1NC(=O)CCSSCCNC(=O)[C@H]2CCCN(C2)C(=O)[C@H](CCCCNC(=O)c2ccc(Cl)s2)NC1=O` [X I D1 B4] were 102.2% and 101.6%.
Taken in the same sequence, the figures for `CC[C@H](C)[C@@H]1NC(=O)CCSSCCNC(=O)c2ccc(cc2)CNC(=O)[C@H](CNC(=O)c2ccc(Cl)s2)NC1=O` [X I D3 B3] were 102.3% and 104.9%.
`CC(C)C[C@@H]1NC(=O)CCSSCCNC(=O)[C@H](CCCCNC(=O)c2ccc(Cl)s2)NC(=O)C2(CC2)CNC1=O` [X L B6 D1]: the “% thrombin activity, Original screen” value stood at 94.8% and the “% thrombin activity, Repeat screen” value is 97.2%.
On to `CC(C)C[C@@H]1NC(=O)CCSSCCNC(=O)c2cccc(c2)CNC(=O)[C@H](CCCNC(=O)c2ccc(Cl)s2)NC1=O` [X L D2 B5], for which the “% thrombin activity, Original screen” value turned out to be 100.1% and the “% thrombin activity, Repeat screen” value is on record as 95.2%.
Taken in the same sequence, the figures for `CC(C)C[C@@H]1NC(=O)CCSSCCNC(=O)[C@@H]2CCCN2C(=O)[C@@H](CNC(=O)c2ccc(Cl)s2)NC1=O` [X L D4 B1] ([Mpa]L[dDap](2Thenoyl(5-Cl))P-Cysteamide; disulfide 1-C) were 107.5% and 100.9%.
As to `NC(=O)CC[C@@H]1NC(=O)CCSSCCNC(=O)C2(CCN(C(=O)c3ccc(Cl)s3)CC2)NC(=O)CCNC1=O` [X Q B2 D6], the “% thrombin activity, Original screen” value is 97.4% and the “% thrombin activity, Repeat screen” value is on record as 98.1%.
The matching figures for `NC(=O)CC[C@@H]1NC(=O)CCSSCCNC(=O)C2(CCN(C(=O)c3ccc(Cl)s3)CC2)NC(=O)c2ccc(cc2)CNC1=O` [X Q B3 D6]: 87.5% and 88.0%.

The values are drawn from publication PMC9250534, “Synthesis and direct assay of large macrocycle diversities by combinatorial late-stage modification at picomole scale” (Nature Communications, 2022).
